Patent US20200017495A1, “NOVEL HETEROCYCLIC COMPOUNDS AND THEIR USE IN PREVENTING OR TREATING BACTERIAL INFECTIONS” (priority 2017, published 2020)

Columns and labels:
Assay type in all cases: cell-based
[1] = system: Morganella morganii (MMO) isolates; assay: MIC of compounds alone and combined with antibacterials, broth microdilution (CLSI)
Description: (§1) Method 2: MIC of Compounds Alone and Combined with Antibacterials Against Bacterial Isolates
(§2) Compounds of the present invention were assessed against genotyped bacterial strains (Table 3, 4) alone or in combination with an antibacterial (Table 2). […] Log phase bacterial suspensions were adjusted to a final density of 5.10^5 CFU/mL in cation-adjusted Mueller-Hinton broth (ca-MHB; Becton-Dickinson and Company) and added to each well (98 μL). Microplates were incubated for 16-20 h at 35° C. in ambient air. The MIC of the compounds was defined as the lowest concentration of said compounds that prevented bacterial growth as read by visual inspection. The MIC of ATB at each compound concentration was defined as the lowest concentration of ATB that prevented bacterial growth as read by visual inspection.

[2] = system: Proteus mirabilis (PMI) isolates; assay: microbe, parasite or virus in culture
Description: as §1, §2

[3] = system: Providencia stuartii (PST) isolates; assay: MIC of compounds alone and combined with antibacterials, broth microdilution (CLSI)
Description: as §1
(§3) Compounds of the present invention were assessed against genotyped bacterial strains (Table 3, 4) alone or in combination with an antibacterial (Table 2). […]. Briefly, compounds alone according to the invention were prepared in DMSO and spotted (2 μL each) on sterile polystyrene plates (Corning, 3788). Combinations of compounds and antibiotics dilutions were prepared in DMSO and spotted (1 μL each) on sterile polystyrene plates (Corning, 3788). Log phase bacterial suspensions were adjusted to a final density of 5.10^5 CFU/mL in cation-adjusted Mueller-Hinton broth (ca-MHB; Becton-Dickinson and Company) and added to each well (98 μL). Microplates were incubated for 16-20 h at 35° C. in ambient air. The MIC of the compounds was defined as the lowest concentration of said compounds that prevented bacterial growth as read by visual inspection. The MIC of ATB at each compound concentration was defined as the lowest concentration of ATB that prevented bacterial growth as read by visual inspection.

[4] = system: Salmonella typhimurium (STY) isolates; assay: as above; conditions: for MIC ATB in combination: STY S3371
Description: as §1, §3

## CC(C)(O/N=C(\C(=O)N[C@@H]1C(=O)N2C(C(=O)[O-])=C(C[n+]3ccccc3)CS[C@H]12)c1csc(N)n1)C(=O)O [CAZ, Ceftazidime]
[1]; MMO 200321, AF2 @ 8 μg/mL
  MIC ATB in combination: <=0.25 μg/mL
[1]; MMO 200321, AF3 @ 8 μg/mL
  MIC ATB in combination: <=0.25 μg/mL
[1]; MMO UFR144, AF2 @ 8 μg/mL
  MIC ATB in combination: <=0.25 μg/mL
[1]; MMO UFR144, AF3 @ 8 μg/mL
  MIC ATB in combination: <=0.25 μg/mL
[1]; MMO UFR240, AF2 @ 8 μg/mL
  MIC ATB in combination: <=0.25 μg/mL
[1]; MMO UFR240, AF3 @ 8 μg/mL
  MIC ATB in combination: <=0.25 μg/mL
[1]; MMO UFR241, AF2 @ 8 μg/mL
  MIC ATB in combination: <=0.25 μg/mL
[1]; MMO UFR241, AF3 @ 8 μg/mL
  MIC ATB in combination: <=0.25 μg/mL
[1]; MMO UFR242, AF2 @ 8 μg/mL
  MIC ATB in combination: <=0.25 μg/mL
[1]; MMO UFR242, AF3 @ 8 μg/mL
  MIC ATB in combination: <=0.25 μg/mL
[1]; MMO UFR243, AF2 @ 8 μg/mL
  MIC ATB in combination: <=0.25 μg/mL
[1]; MMO UFR243, AF3 @ 8 μg/mL
  MIC ATB in combination: <=0.25 μg/mL
[1]; MMO UFR244, AF2 @ 8 μg/mL
  MIC ATB in combination: <=0.25 μg/mL
[1]; MMO UFR244, AF3 @ 8 μg/mL
  MIC ATB in combination: <=0.25 μg/mL
[1]; MMO UFR245, AF2 @ 8 μg/mL
  MIC ATB in combination: <=0.25 μg/mL
[1]; MMO UFR245, AF3 @ 8 μg/mL
  MIC ATB in combination: <=0.25 μg/mL
[1]; MMO UFR246, AF2 @ 8 μg/mL
  MIC ATB in combination: <=0.25 μg/mL
[1]; MMO UFR246, AF3 @ 8 μg/mL
  MIC ATB in combination: <=0.25 μg/mL
[1]; MMO UFR247, AF2 @ 8 μg/mL
  MIC ATB in combination: <=0.25 μg/mL
[1]; MMO UFR247, AF3 @ 8 μg/mL
  MIC ATB in combination: <=0.25 μg/mL
[1]; strain MMO 200321, genotype TEM-1, CTX-M-15, OXA-1
  MIC: 16 µg/mL
[1]; strain MMO UFR144, genotype TEM-1, CTX-M-15
  MIC: 8 µg/mL
[1]; strain MMO UFR145, with AF2 @ 8 μg/mL
  MIC ATB in combination: >128 µg/mL
[1]; strain MMO UFR145, with AF3 @ 8 μg/mL
  MIC ATB in combination: >128 µg/mL
[1]; strain MMO UFR240, genotype CTX-M-9
  MIC: 0.5 µg/mL
[1]; strain MMO UFR241, genotype TEM-1, CTX-M-15
  MIC: 8 µg/mL
[1]; strain MMO UFR242, genotype TEM-52
  MIC: 32 µg/mL
[1]; strain MMO UFR243, genotype DHA-1
  MIC: 1 µg/mL
[1]; strain MMO UFR244, genotype DHA-1
  MIC: 0.5 µg/mL
[1]; strain MMO UFR245, genotype DHA-1
  MIC: 8 µg/mL
[1]; strain MMO UFR246, genotype DHA-1
  MIC: 4 µg/mL
[1]; strain MMO UFR247, genotype DHA-1
  MIC: 0.5 µg/mL
[2]; PMI UFR82, AF2 @ 8 μg/mL
  MIC ATB in combination: <0.25 µg/mL
[2]; PMI UFR82, AF3 @ 8 μg/mL
  MIC ATB in combination: <0.25 µg/mL
[2]; PMI UFR126, AF2 @ 8 μg/mL
  MIC ATB in combination: <0.25 µg/mL
[2]; PMI UFR126, AF3 @ 8 μg/mL
  MIC ATB in combination: <0.25 µg/mL
[2]; PMI UFR127, AF2 @ 8 μg/mL
  MIC ATB in combination: <0.25 µg/mL
[2]; PMI UFR127, AF3 @ 8 μg/mL
  MIC ATB in combination: <0.25 µg/mL
[2]; PMI UFR128, AF2 @ 8 μg/mL
  MIC ATB in combination: <0.25 µg/mL
[2]; PMI UFR128, AF3 @ 8 μg/mL
  MIC ATB in combination: <0.25 µg/mL
[2]; PMI UFR129, AF2 @ 8 μg/mL
  MIC ATB in combination: <0.25 µg/mL
[2]; PMI UFR129, AF3 @ 8 μg/mL
  MIC ATB in combination: <0.25 µg/mL
[2]; PMI UFR130, AF2 @ 8 μg/mL
  MIC ATB in combination: <0.25 µg/mL
[2]; PMI UFR130, AF3 @ 8 μg/mL
  MIC ATB in combination: <0.25 µg/mL
[2]; PMI UFR133, AF2 @ 8 μg/mL
  MIC ATB in combination: <0.25 µg/mL
[2]; PMI UFR133, AF3 @ 8 μg/mL
  MIC ATB in combination: <0.25 µg/mL
[2]; PMI UFR237, AF2 @ 8 μg/mL
  MIC ATB in combination: <0.25 µg/mL
[2]; PMI UFR237, AF3 @ 8 μg/mL
  MIC ATB in combination: <0.25 µg/mL
[2]; strain PMI UFR82, genotype CMY-2
  MIC: 4 µg/mL
[2]; strain PMI UFR120, genotype TEM-1, SHV-11, CTX-M-14
  MIC: <=0.25 μg/mL
[2]; strain PMI UFR121, genotype TEM-1, TEM-52
  MIC: 16 µg/mL
[2]; strain PMI UFR122, genotype TEM-1, CTX-M-15
  MIC: 1 µg/mL
[2]; strain PMI UFR123, genotype CTX-M-1
  MIC: 2 µg/mL
[2]; strain PMI UFR124, genotype CTX-M-2
  MIC: 2 µg/mL
[2]; strain PMI UFR125, genotype CTX-M-71
  MIC: 2 µg/mL
[2]; strain PMI UFR126, genotype TEM-2, PER-1
  MIC: >128 µg/mL
[2]; strain PMI UFR127, genotype VEB-1
  MIC: >128 µg/mL
[2]; strain PMI UFR128, genotype VEB-1, OXA-10
  MIC: >128 µg/mL
[2]; strain PMI UFR129, genotype TEM-1, VEB-6
  MIC: >128 µg/mL
[2]; strain PMI UFR130, genotype CMY-2
  MIC: 4 µg/mL
[2]; strain PMI UFR131, genotype CMY-16, OXA-1, OXA-10, NDM-1, ArmA
  MIC: >128 µg/mL
[2]; strain PMI UFR131, with AF2 @ 8 μg/mL
  MIC ATB in combination: <0.25 µg/mL
[2]; strain PMI UFR131, with AF3 @ 8 μg/mL
  MIC ATB in combination: <0.25 µg/mL
[2]; strain PMI UFR132, genotype VEB-6, DHA-1, NDM-1, AphA6, AacA4
  MIC: >128 µg/mL
[2]; strain PMI UFR132, with AF2 @ 8 μg/mL
  MIC ATB in combination: <0.25 µg/mL
[2]; strain PMI UFR132, with AF3 @ 8 μg/mL
  MIC ATB in combination: <0.25 µg/mL
[2]; strain PMI UFR133, genotype OXA-23
  MIC: <=0.25 μg/mL
[2]; strain PMI UFR237, genotype VEB-6
  MIC: >128 µg/mL
[3]; PST UFR94, AF2 @ 8 μg/mL
  MIC ATB in combination: <=0.25 μg/mL
[3]; PST UFR94, AF3 @ 8 μg/mL
  MIC ATB in combination: <=0.25 μg/mL
[3]; PST UFR95, AF2 @ 8 μg/mL
  MIC ATB in combination: <=0.25 μg/mL
[3]; PST UFR95, AF3 @ 8 μg/mL
  MIC ATB in combination: <=0.25 μg/mL
[3]; PST UFR120, AF2 @ 8 μg/mL
  MIC ATB in combination: <0.25 µg/mL
[3]; PST UFR120, AF3 @ 8 μg/mL
  MIC ATB in combination: <0.25 µg/mL
[3]; PST UFR121, AF2 @ 8 μg/mL
  MIC ATB in combination: <0.25 µg/mL
[3]; PST UFR121, AF3 @ 8 μg/mL
  MIC ATB in combination: <0.25 µg/mL
[3]; PST UFR122, AF2 @ 8 μg/mL
  MIC ATB in combination: <0.25 µg/mL
[3]; PST UFR122, AF3 @ 8 μg/mL
  MIC ATB in combination: <0.25 µg/mL
[3]; PST UFR123, AF2 @ 8 μg/mL
  MIC ATB in combination: <=0.25 μg/mL
[3]; PST UFR123, AF3 @ 8 μg/mL
  MIC ATB in combination: <0.25 µg/mL
[3]; PST UFR124, AF2 @ 8 μg/mL
  MIC ATB in combination: <=0.25 μg/mL
[3]; PST UFR124, AF3 @ 8 μg/mL
  MIC ATB in combination: <0.25 µg/mL
[3]; PST UFR125, AF2 @ 8 μg/mL
  MIC ATB in combination: <=0.25 μg/mL
[3]; PST UFR125, AF3 @ 8 μg/mL
  MIC ATB in combination: <0.25 µg/mL
[3]; PST UFR235, AF2 @ 8 μg/mL
  MIC ATB in combination: <=0.25 μg/mL
[3]; PST UFR235, AF3 @ 8 μg/mL
  MIC ATB in combination: <=0.25 μg/mL
[3]; strain PST UFR94, genotype CTX-M-14
  MIC: 1 µg/mL
[3]; strain PST UFR95, genotype TEM-24
  MIC: 64 µg/mL
[3]; strain PST UFR98, genotype TEM-1, CMY-6, OXA-1, NDM-1, RmtC
  MIC: >256 µg/mL
[3]; strain PST UFR98, with AF2 @ 8 μg/mL
  MIC ATB in combination: >128 µg/mL
[3]; strain PST UFR98, with AF3 @ 8 μg/mL
  MIC ATB in combination: <0.25 µg/mL
[3]; strain PST UFR235, genotype VEB-1
  MIC: >128 µg/mL
[4]; AF2 @ 8 μg/mL
  MIC ATB in combination: <0.25 µg/mL
[4]; AF3 @ 8 μg/mL
  MIC ATB in combination: <0.25 µg/mL
[4]; strain STY S3371, genotype OXA-1
  MIC: 0.5 µg/mL
